Experimental data: patent publication US20030031715A1, “Pharmaceutical applications of hydrotropic agents, polymers thereof, and hydrogels thereof” (priority 2000, published 2003)
Converted amounts (≈) assume the structure as drawn. Read-outs that look alike come from different tables or passages of the source.

Legend:
physchem = conditions: water
[1] = Paclitaxel aqueous solubility in the presence of hydrotropic agents, polymers and hydrogels (HPLC); conditions: for hydrotropic effect for paclitaxel, in words: agent concentration as printed in parentheses in the text
Method: The mobile phase consists of acetonitrile-water (45:55 v/v) with a flow rate of 1.0 ml/min.
To the filtered solution is added ethylene glycol dimethacrylate, a crosslinker at a concentration of 6 mol % to the monomer.

[2] = at 37° C.; cited from earlier work
[3] = log (CO/CW), octanol and water; cited from earlier work

NC(=O)c1cccc(C(N)=O)n1 [2,6-pyridinedicarboxamide]
solubility (physchem): 2500 µM (≈ 413 µg/mL)
PTX Solubility [1]: 0 µg/mL

C=C(C)C(=O)OCCOP(=O)([O-])OCC[N+](C)(C)C [2-methacryloyloxyethyl phosphorylcholine]
PTX Solubility [1]: 3199 µg/mL

Nc1ccc(C(=O)O)c(O)c1 [4-aminosalicylic acid]
solubility (physchem): 5000 µM (≈ 766 µg/mL)

CN(C)CCCN1c2ccccc2Sc2ccc(Cl)cc21 [Chlorpromazine]
Water Solubility (μM) [2]: 94.1 µM
Water Solubility (μg/ml) [2]: 30.0 µg/mL
Partition Coefficient [3]: 3.17

C(=C\c1ccccc1)/CN1CCN(C(c2ccccc2)c2ccccc2)CC1 [Cinnarizine]
Water Solubility (μM) [2]: <1.0 µM
Water Solubility (μg/ml) [2]: <0.4 µg/mL

C[C@@H]1C[C@H]2[C@@H]3CCC4=CC(=O)C=C[C@]4(C)[C@@]3(F)[C@@H](O)C[C@]2(C)[C@@]1(O)C(=O)CO [Dexamethasone]
Water Solubility (μM) [2]: 25.5 µM
Water Solubility (μg/ml) [2]: 10.0 µg/mL
Partition Coefficient [3]: 1.95

O=C(O)Cc1ccccc1Nc1c(Cl)cccc1Cl [Diclofenac]
Water Solubility (μM) [2]: 10.1 µM
Water Solubility (μg/ml) [2]: 3.0 µg/mL
Partition Coefficient [3]: 1.12

CC/C(=C(/CC)c1ccc(O)cc1)c1ccc(O)cc1 [Diethylstilbestrol]
Water Solubility (μM) [2]: 7.5 µM
Water Solubility (μg/ml) [2]: 2.0 µg/mL
Partition Coefficient [3]: 4.50

C[C@H]1O[C@@H](O[C@H]2[C@@H](O)C[C@H](O[C@H]3[C@@H](O)C[C@H](O[C@H]4CC[C@@]5(C)[C@H](CC[C@@H]6[C@@H]5C[C@@H](O)[C@]5(C)[C@@H](C7=CC(=O)OC7)CC[C@]65O)C4)O[C@@H]3C)O[C@@H]2C)C[C@H](O)[C@@H]1O [Digoxin]
Water Solubility (μM) [2]: 38.4 µM
Water Solubility (μg/ml) [2]: 30.0 µg/mL
Partition Coefficient [3]: 1.26

C[C@]12CC[C@@H]3c4ccc(O)cc4CC[C@H]3[C@@H]1CCC2=O [Estrone]
Partition Coefficient [3]: 3.69

Fc1ccc(C(c2ccc(F)cc2)N2CCN(C/C=C/c3ccccc3)CC2)cc1 [Flunarizine]
Water Solubility (μM) [2]: 1.0 µM
Water Solubility (μg/ml) [2]: 0.4 µg/mL
Partition Coefficient [3]: 4.70

C[C@]12CCC(=O)C=C1CC[C@@H]1[C@@H]2[C@@H](O)C[C@@]2(C)[C@H]1CC[C@]2(O)C(=O)CO [Hydrocortisone]
Partition Coefficient [3]: 1.52

COc1ccc2c(c1)c(CC(=O)O)c(C)n2C(=O)c1ccc(Cl)cc1 [Indomethacin]
Water Solubility (μM) [2]: 55.9 µM
Water Solubility (μg/ml) [2]: 20.0 µg/mL
Partition Coefficient [3]: 4.27

CCC(C)n1ncn(-c2ccc(N3CCN(c4ccc(OCC5COC(Cn6cncn6)(c6ccc(Cl)cc6Cl)O5)cc4)CC3)cc2)c1=O (stereo not drawn) [Itraconazole]
Water Solubility (μM) [2]: 2.8 µM
Water Solubility (μg/ml) [2]: 2.0 µg/mL
Partition Coefficient [3]: 5.66

COC(=O)Nc1nc2ccc(C(=O)c3ccccc3)cc2[nH]1 [Mebendazole]
Partition Coefficient [3]: 2.83

CCN(CC)C(=O)c1cccnc1 [N,N-diethylnicotinamide]
hydrotropic property relative to N,N-dimethylnicotinamide [1]: > 20 times

C=CC(=O)NC(C)C [N-isopropylacrylamide]
hydrotropic effect for paclitaxel, in words [1]: very small hydrotropic effects

CNC(C)=O [N-methylacetamide]
hydrotropic effect for paclitaxel, in words [1]: very small hydrotropic effects
PTX Solubility ([1]; hydrotropic agent […]): 12 µg/mL

COC(=O)C1=C(C)NC(C)=C(C(=O)OCCN(C)Cc2ccccc2)C1c1cccc([N+](=O)[O-])c1 (stereo not drawn) [Nicardipine]
Water Solubility (μM) [2]: 7.1 µM
Water Solubility (μg/ml) [2]: 3.4 µg/mL
Partition Coefficient [3]: 3.62

COC(=O)C1=C(C)NC(C)=C(C(=O)OC)C1c1ccccc1[N+](=O)[O-] [Nifedifine]
Water Solubility (μM) [2]: 28.9 µM
Water Solubility (μg/ml) [2]: 10.0 µg/mL
Partition Coefficient [3]: 2.20

C#C[C@]1(O)CC[C@H]2[C@@H]3CCC4=CC(=O)CC[C@@H]4[C@H]3CC[C@@]21C [Norethindrone]
Partition Coefficient [3]: 3.15

CCOc1ccc(NC(C)=O)cc1 [Phenacetin]
Partition Coefficient [3]: 1.55

O=C1NC(=O)C(c2ccccc2)(c2ccccc2)N1 [Phenytoin]
Water Solubility (μM) [2]: 79.3 µM
Water Solubility (μg/ml) [2]: 20.0 µg/mL
Partition Coefficient [3]: 2.47

O=c1[nH]c2ccccc2n1C1CCN(CCCC(c2ccc(F)cc2)c2ccc(F)cc2)CC1 [Pimozide]
Water Solubility (μM) [2]: 2.2 µM
Water Solubility (μg/ml) [2]: 1.0 µg/mL
Partition Coefficient [3]: 4.50

CO[C@H]1C[C@@H]2CC[C@@H](C)[C@@](O)(O2)C(=O)C(=O)N2CCCC[C@H]2C(=O)O[C@H]([C@H](C)C[C@@H]2CC[C@@H](O)[C@H](OC)C2)CC(=O)[C@H](C)/C=C(\C)[C@@H](O)[C@@H](OC)C(=O)[C@H](C)C[C@H](C)/C=C/C=C/C=C/1C [Rapamycin]
Water Solubility (μM) [2]: 3.3 µM
Water Solubility (μg/ml) [2]: 3.0 µg/mL

COC(=O)[C@H]1[C@H]2C[C@@H]3c4[nH]c5cc(OC)ccc5c4CCN3C[C@H]2C[C@@H](OC(=O)c2cc(OC)c(OC)c(OC)c2)[C@@H]1OC [Reserpine]
Water Solubility (μM) [2]: 1.6 µM
Water Solubility (μg/ml) [2]: 1.0 µg/mL
Partition Coefficient [3]: 3.73

CC(=O)S[C@@H]1CC2=CC(=O)CC[C@]2(C)[C@H]2CC[C@@]3(C)[C@@H](CC[C@@]34CCC(=O)O4)[C@H]12 [Spironolactone]
Water Solubility (μM) [2]: 72.0 µM
Water Solubility (μg/ml) [2]: 30.0 µg/mL
Partition Coefficient [3]: 2.78

CC(C)(C)c1ccc(C(O)CCCN2CCC(C(O)(c3ccccc3)c3ccccc3)CC2)cc1 (stereo not drawn) [Terfenadine]
Water Solubility (μM) [2]: 152.8 µM
Water Solubility (μg/ml) [2]: 72.1 µg/mL
Partition Coefficient [3]: 4.05

O=C1CCC(N2C(=O)c3ccccc3C2=O)C(=O)N1 (stereo not drawn) [Thalidomide]
Water Solubility (μM) [2]: 77.5 µM
Water Solubility (μg/ml) [2]: 20.0 µg/mL
Partition Coefficient [3]: 0.64

CCCCNC(=O)NS(=O)(=O)c1ccc(C)cc1 [Tolbutamide]
Water Solubility (μM) [2]: 202.6 µM
Water Solubility (μg/ml) [2]: 54.8 µg/mL

CN1CCN(CCCN2c3ccccc3Sc3ccc(C(F)(F)F)cc32)CC1 [Trifluoperazine]
Partition Coefficient [3]: 4.15

Nc1ncnc2c1ncn2[C@@H]1O[C@H](CO)[C@@H](O)[C@H]1O [adenosine]
solubility (physchem): 5000 µM (≈ 1340 µg/mL)

CC(C)N(C(=O)c1cccnc1)C(C)C [diisopropylnicotinamide, N,N-diisopropylnicotinamide]
solubility (physchem): 50000 µM (≈ 10300 µg/mL)

CC(=O)OCC(COC(C)=O)OC(C)=O [glyceryl triacetate]
solubility (physchem): 200000 µM

NC(N)=O [urea]
PTX Solubility [1]: 1 µg/mL

Pluronic F127
PTX Solubility [1]: 66 µg/mL

Pluronic P85
PTX Solubility [1]: 118 µg/mL

Poly(2-methacryloyloxyethyl phosphorylcholine-co-N-isopropylacrylamide)
PTX Solubility [1]: 42 µg/mL

Poly(6-allyloxy-N,N-diethylnicotinamide)
PTX Solubility [1]: 149 µg/mL

Poly(N-allylnicotinamide)
PTX Solubility [1]: 253 µg/mL

Poly(Sodium 4-acrylamidosalicylate)
PTX Solubility [1]: 28 µg/mL

Poly(Sodium 5-acrylamidosalicylate)
PTX Solubility [1]: 0 µg/mL

Poly(sodium 6-allyloxynicotinic acid)
PTX Solubility [1]: 3 µg/mL

Polyvinylpyrrolidone K-25
PTX Solubility [1]: 3 µg/mL

Polyvinylpyrrolidone K-30
PTX Solubility [1]: 1 µg/mL

Polyvinylpyrrolidone K-90
PTX Solubility [1]: 2 µg/mL

Polyvinylpyrrolidone K- 17
PTX Solubility [1]: 0 µg/mL
